The source of these data is US4661483A, “Antihypercholesterolemic lactone compounds, compositions and use” (Merck & Co., Inc., priority 1986, dated 1987).

The subject of the assay is HMG-CoA reductase. Put plainly: HMG-CoA Reductase Inhibition Assay (in vitro, [14C]HMG-CoA to mevalonolactone). The class given is biochemical. To be noted: IC50 compared with that of compactin determined simultaneously; compactin assigned 100 (footnote b60 prints 10); tested as sodium salt of dihydroxy acid form; solubilized rat liver microsomal enzyme. The procedure:
The intrinsic HMG-CoA reductase inhibition activity of the claimed compounds is measured in the in vitro protocol published in J. Med. Chem., 28, p. 347-358 (1985) and described below:
Isolation of HMG-CoA Reductase
Male Holtzman Sprague-Dawley rats (225-250 g) were kept on reversed lighting and fed Purina rat chow containing 3% cholestyramine for 7 days preceding their sacrifice by CO2 asphyxiation. Livers were removed 6 hours into the dark cycle and used immediately to prepare microsomes. HMG-CoA reductase was solubilized from the freshly prepared microsome by the method of Heller and Shrewsbury [J. Biol. Chem., 1976, 251, 3815] and purified through the second ammonium sulfate precipitation step as described by Kleinsek et al. [Proc. Natl. Acad. Sci. USA, 1977, 74, 1431]. The enzyme preparation was tested for HMG-CoA reductase potency and diluted with 100 mM phosphate buffer (pH 7.2) so that 100 μl of the enzyme solution, when added to the assay control, gave a value of 50,000-60,000 dpm. The enzyme preparation was stored at -80° C.
HMG-CoA Reductase Inhibition Assay
The assay is essentially the procedure of Shefer et al. [J. Lipid Res., 1972, 13, 402]. The complete assay medium contained the following in a total volume of 0.8 ml: phosphate buffer, pH 7.2, 100 mM; MgCl2, 3 mM; NADP, 3 mM; glucose 6-phosphate, 10 mM; glucose-6-phosphate dehydrogenase, 3 enzyme units; reduced glutathione, 50 mM; HMG-CoA (glutaryl-3-^14 C, New England Nuclear), 0.2 mM (0.1 μCi); and partially purified enzyme stock solution, 100 μL.
Test compounds or compactin (after first being converted to the sodium salt of their dihydroxy acid form in situ by addition of 1N NaOH (1 equivalent) were added to the assay system in 10-μL volumes at multiconcentration levels. After a 40-minute incubation at 37° C. with shaking and exposure to air, the reaction was stopped by the addition of 0.4 mL of 8N HCl. After an additional 30-minute incubation period at 37° C. to ensure the complete lactonization of mevalonic acid to mevalonolactone, 0.2 ml of the mixture was added to an 0.5×5.0 cm column containing 100-200 mesh Bio-Rex 5, chloride form (Bio-Rad), wetted with distilled water, as described by Alberts et al. [J. Proc. Natl. Acad. Sci. U.S.A., 1980, 77, 3957]. The unreacted [^14 C]HMG-CoA was absorbed on the resin and the [^14 C]mevalonolactone was eluted with distilled water (2×1 ml) directly into 7-ml scintillation vials. Five milliliters of Aquasol-2 (New England Nuclear) was added to each vial, and radioactivity was measured in a Packard Tri Carb Prias scintillation counter. IC50 values were determined by plotting percentage inhibition against test compound concentration and fitting a straight line to the resulting data by using the least-squares method. For estimation of relative inhibitory potencies, compactin was assigned a value of 100 and the IC50 value of the test compound was compared with that of compactin determined simultaneously.

Regarding `CNC(=O)C(C)(C)C(=O)OC1CC(C)C=C2C=CC(C)C(CCC(O)CC(O)CC(=O)O)C21` (centres unmarked), the “Relative Potency” value is recorded as 13.
The value for `CC1C=C2C=CC(C)C(CCC(O)CC(O)CC(=O)O)C2C(OC(=O)C(C)(C)C(=O)N2CCOCC2)C1` (centres unmarked) was 20; that for `CC1C=C2C=CC(C)C(CCC(O)CC(O)CC(=O)O)C2C(OC(=O)C(C)(C)C(=O)N(C)C)C1` (centres unmarked) was 34.
For the compound `CC1C=C2C=CC(C)C(CCC(O)CC(O)CC(=O)O)C2C(OC(=O)C(C)(C)CC(=O)N(C)C)C1` (centres unmarked), the “Relative Potency” value is on record as 16.
`CCN(CC)C(=O)C(C)(C)C(=O)OC1CC(C)C=C2C=CC(C)C(CCC(O)CC(O)CC(=O)O)C21` (centres unmarked): the “Relative Potency” value is 22.
